Here are results for 13 compounds from PubChem BioAssay (NCI).

Molecules are shown by their SMILES.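 How tested: cells in 96-well plates exposed to compound for 48 hours at five concentrations. The concentration for full growth arrest is given as TGI.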

Some test systems named below: OVCAR-5 ovarian; BT-549 breast; SN12C renal; SK-MEL-2 melanoma; M14 melanoma; MDA-N; SF-295 CNS; OVCAR-4 ovarian; NCI/ADR-RES ovarian; DU-145 prostate.
What all share (experiment): NCI anticancer screen, dose series, 48 h

Consider `COc1c(-c2nc3nc(N4CCN(C)CC4)ccc3[nH]2)cc(OC)c2c1nc(COC(C)=O)n2C`, for which the TGI in the assay on OVCAR-5 ovarian, in the assay with BT-549 breast, in the assay on SN12C renal, in the assay on SK-MEL-2 melanoma, in the assay on M14 melanoma and in the assay with MDA-N was more than 100 µM throughout. Moreover, the TGI in the assay on SF-295 CNS, with OVCAR-4 ovarian, in the assay with NCI/ADR-RES ovarian and in the assay with DU-145 prostate was more than 100 µM in each case.

For `O=C(/C=C/c1cccc(Oc2ccccc2)c1)NCc1ccc(C(=O)NCCc2ccccc2)cc1`, the TGI with OVCAR-5 ovarian, in the assay with BT-549 breast, with SN12C renal, with SK-MEL-2 melanoma, in the assay with M14 melanoma and with MDA-N was more than 100 µM throughout. Besides, the TGI in the assay on SF-295 CNS, in the assay with OVCAR-4 ovarian, in the assay on NCI/ADR-RES ovarian and in the assay with DU-145 prostate was more than 100 µM each time.

On to `CCOC(=O)C(NC(=O)c1ccccc1)(N1CCN(c2cc3c(cc2F)c(=O)c(C(=O)O)cn3CC)CC1)C(F)(F)F` (stereo not given), for which the TGI is 45.3 µM in the assay on OVCAR-5 ovarian; more than 100 µM in the assay with BT-549 breast; more than 100 µM in the assay with SN12C renal; more than 100 µM in the assay on SK-MEL-2 melanoma; more than 100 µM in the assay on M14 melanoma; more than 100 µM with MDA-N. Moreover, the TGI in the assay with SF-295 CNS, with OVCAR-4 ovarian, with NCI/ADR-RES ovarian and in the assay on DU-145 prostate was more than 100 µM throughout.

As to `COC(=O)c1c(O)ccc2[nH]c3c(O)c4ccccc4cc3c12`, the TGI in the assay with OVCAR-5 ovarian is more than 100 µM; with BT-549 breast, more than 100 µM; in the assay on SN12C renal, more than 100 µM; in the assay with SK-MEL-2 melanoma, 55 µM; with M14 melanoma, 67.4 µM; in the assay with MDA-N it was 65 µM. For the same compound, the TGI in the assay on SF-295 CNS amounted to 38.1 µM; in the assay on OVCAR-4 ovarian, 78.4 µM; in the assay with NCI/ADR-RES ovarian, 78.4 µM; in the assay with DU-145 prostate, 71 µM.

Regarding `CC(C)=CCc1[nH]c2ccccc2c1C1=C(O)C(=O)C(c2c(CC=C(C)C)[nH]c3ccccc23)=C(O)C1=O`, the TGI with OVCAR-5 ovarian worked out at 8.44 µM; with BT-549 breast, 1.59 µM; in the assay with SN12C renal it was 4.79 µM; in the assay with SK-MEL-2 melanoma, 3.95 µM; in the assay on M14 melanoma, 15.6 µM; in the assay with MDA-N, 11.5 µM. Further, the TGI with SF-295 CNS was found to be 6.5 µM; with OVCAR-4 ovarian, 93.1 µM; with NCI/ADR-RES ovarian, 17.3 µM; in the assay with DU-145 prostate, 10.9 µM.

For `S=c1[nH]n2c(CCCCCCCCc3nnc4sc(=S)[nH]n34)nnc2s1`, the TGI in the assay with OVCAR-5 ovarian, in the assay on BT-549 breast, with SN12C renal, in the assay on SK-MEL-2 melanoma, in the assay on M14 melanoma and in the assay with MDA-N was more than 100 µM each time. The TGI in the assay on SF-295 CNS, in the assay on OVCAR-4 ovarian, with NCI/ADR-RES ovarian and with DU-145 prostate was more than 100 µM throughout.

For `CCOC(=O)C(Cc1ccc(OC(=O)OC(C)(C)C)cc1)NC(=O)OC(C)(C)C` (stereo not given), the TGI in the assay with OVCAR-5 ovarian was more than 100 µM; in the assay on BT-549 breast, more than 100 µM; in the assay with SN12C renal, more than 100 µM; in the assay with SK-MEL-2 melanoma, more than 100 µM; in the assay with M14 melanoma it was 79.9 µM; in the assay with MDA-N, more than 100 µM. The TGI in the assay on SF-295 CNS is more than 100 µM; with OVCAR-4 ovarian it was more than 100 µM; with NCI/ADR-RES ovarian, more than 100 µM; with DU-145 prostate it was 96 µM.

On to `CCCCCCCCCCCC[C@@H](O)[C@H]1CCC([C@H](O)CCCCC(=O)CCCCCCCC2=C[C@H](C)OC2=O)O1` (stereo not given in full), for which the TGI in the assay with OVCAR-5 ovarian is more than 50 µM; in the assay with BT-549 breast, more than 50 µM; with SN12C renal, more than 50 µM; in the assay on SK-MEL-2 melanoma it was more than 50 µM; with M14 melanoma it was more than 35.8 µM; in the assay with MDA-N, more than 50 µM. Further, the TGI with SF-295 CNS, in the assay on OVCAR-4 ovarian, with NCI/ADR-RES ovarian and in the assay on DU-145 prostate was more than 50 µM in each case.

As for `CSc1ccn(C2CC(F)C(CO)O2)c(=O)n1` (stereo not given), the TGI in the assay on OVCAR-5 ovarian, with BT-549 breast, in the assay with SN12C renal, in the assay on SK-MEL-2 melanoma, in the assay with M14 melanoma and in the assay on MDA-N was more than 100 µM throughout. The TGI in the assay on SF-295 CNS, in the assay with OVCAR-4 ovarian, in the assay with NCI/ADR-RES ovarian and in the assay on DU-145 prostate was more than 100 µM throughout.

For the compound `O=c1[nH]cc(Cl)c(=O)[nH]1`, the TGI with OVCAR-5 ovarian, in the assay on BT-549 breast, in the assay with SN12C renal, in the assay with SK-MEL-2 melanoma, in the assay with M14 melanoma and in the assay on MDA-N was more than 100 µM each time. For the same compound, the TGI in the assay on SF-295 CNS, in the assay on OVCAR-4 ovarian, in the assay with NCI/ADR-RES ovarian and in the assay with DU-145 prostate was more than 100 µM each time.

In the case of `Cc1sc2c(c1C)/C(=N\O)c1cccn1-2`, the TGI in the assay with OVCAR-5 ovarian, in the assay with BT-549 breast, in the assay with SN12C renal, in the assay with SK-MEL-2 melanoma, in the assay with M14 melanoma and with MDA-N was more than 100 µM in each case. Besides, the TGI in the assay on SF-295 CNS, in the assay with OVCAR-4 ovarian, with NCI/ADR-RES ovarian and in the assay on DU-145 prostate was more than 100 µM in each case.

Turning to `Nc1ncn2c(n1)nc1ccccc12`, the TGI in the assay with OVCAR-5 ovarian, in the assay with BT-549 breast, in the assay with SN12C renal, in the assay with SK-MEL-2 melanoma, in the assay with M14 melanoma and with MDA-N was more than 100 µM each time. Moreover, the TGI with SF-295 CNS, in the assay on OVCAR-4 ovarian, in the assay on NCI/ADR-RES ovarian and in the assay with DU-145 prostate was more than 100 µM throughout.

For the compound `CC(=O)Oc1ccc2c(c1)CC[C@@H]1C2[C@@H](O[N+](=O)[O-])C[C@@]2(C)C1CC[C@@H]2O[N+](=O)[O-]` (stereo not given in full), the TGI is 33.7 µM in the assay with OVCAR-5 ovarian; 33.8 µM in the assay on BT-549 breast; 29.5 µM in the assay on SN12C renal; 31.5 µM in the assay on SK-MEL-2 melanoma; 31.6 µM in the assay on M14 melanoma; 28.2 µM in the assay on MDA-N. Moreover, the TGI in the assay on SF-295 CNS came out at 23.7 µM; in the assay on OVCAR-4 ovarian it was 33.3 µM; in the assay on NCI/ADR-RES ovarian, 33.6 µM; in the assay with DU-145 prostate, 28.3 µM.
